Laboratory results published in patent US12129312B2, “Peptide compound, application thereof and composition containing same” (priority 2017, dated 2024).
pEC50: −log10 of the molar value. Read-outs that look alike come from different tables or passages of the source. Square brackets hold non-standard residues; d marks the D form. Peptide text beside a SMILES is read from it. * marks the point of attachment. PEG8 = NCCOCCOCCOCCOCCOCCOCCOCCOCCC(=O)O; 2Nal = N[C@@H](Cc1ccc2ccccc2c1)C(=O)O; Tiq1c(1S) = O=C(O)[C@H]1NCCc2ccccc21; dNMeY = CN[C@H](Cc1ccc(O)cc1)C(=O)O; Butanoyl(4-Ph) = O=C(CCCc1ccccc1)*; Hydrocinnamoyl = O=C(CCc1ccccc1)*; Palmitoyl = CCCCCCCCCCCCCCCC(=O)*; Myristoyl = CCCCCCCCCCCCCC(=O)*; Tic = O=C(O)[C@@H]1Cc2ccccc2CN1; dTic = O=C(O)[C@H]1Cc2ccccc2CN1; NMeL = CN[C@@H](CC(C)C)C(=O)O; NMehSer = CN[C@@H](CCO)C(=O)O; X12 = O=C(Cc1cc(O)cc(O)c1)*; NMeS = CN[C@@H](CO)C(=O)O; Thz = O=C(O)[C@@H]1CSCN1; Nva = CCC[C@H](N)C(=O)O; βAla = NCCC(=O)O

Biological target: T1, human Chemokine like receptor 1 (Homo sapiens, UniProt Q99788)
T1 construct: host or cells: U2OS (Tango CMKLR1-bla U2OS)
T1 sequence (Q99788 1-373): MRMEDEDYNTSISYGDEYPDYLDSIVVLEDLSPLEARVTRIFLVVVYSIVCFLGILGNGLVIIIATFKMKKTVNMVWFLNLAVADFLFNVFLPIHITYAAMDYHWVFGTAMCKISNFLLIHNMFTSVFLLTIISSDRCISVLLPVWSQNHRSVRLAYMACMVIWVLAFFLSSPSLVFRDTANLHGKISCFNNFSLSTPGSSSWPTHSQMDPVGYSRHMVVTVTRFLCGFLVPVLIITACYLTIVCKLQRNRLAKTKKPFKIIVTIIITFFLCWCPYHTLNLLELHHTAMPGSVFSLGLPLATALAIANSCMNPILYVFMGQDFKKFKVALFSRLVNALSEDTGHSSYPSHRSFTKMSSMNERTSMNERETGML
Assay: Activation of Tango CMKLR1-bla U2OS cells (beta-lactamase FRET reporter)
Type: cell-based
Method: The polypeptide sequences described above are the polypeptide sequences disclosed in the patent JP2010-229093A of BANYU PHARMA CO LTD: (D-Tyr)-Phe-Leu-Pro-(D-Ser)-Gln-Phe-(D-Ala)-Tic-Ser was used as a positive control (SEQ ID NO: 102).
The activation of the compound on Tango™ CMKLR1-bla U2OS cells (Invitrogen Cat. nos. K1551) was tested.
The activation of each compound in the above experiments on Tango™ CMKLR1-bla U2OS cells was determined as follows:
Day 1: Cell Seeding on Plate
2. The medium was removed, and the cells were washed with DPBS twice, followed by addition of 3 mL of 0.05% trypsin, and placed in a 37° C., 5% CO2 incubator (Thermo Fisher, Waltham, Massachusetts, USA) for 3-5 minutes. After the cells were rounded, 3-5 mL of medium (medium formula: DMEM 90%, Dialyzed FBS 10%, NEAA 0.1 mM, HEPES (pH 7.3) 25 mM, Penicillin 100 U/mL, Streptomycin 100 μg/mL) was added to terminate digestion.
2. The digested cells were transferred to a 15 mL centrifuge tube (430790, Corning), centrifuged at 1000 rpm for 5 minutes (5810R, Eppendorf, Hamburg, Germany), and the supernatant was discarded.
3. 7 mL of medium (DMEM+10% FBS) was added, blowed into a single cell suspension, counted by a cell counter, and adjusted the cell suspension to a desired cell density of 250,000/mL with the medium.
4. The cell suspension was seeded into a 384-well cell plate (Corning 3712) in 40 μL/well to make the number of cells 10000 cells/well, and 32 μL of medium was added to the blank control.
5. The incubation was performed overnight at 37° C. under 5% CO2.
Day 2: Dosing and Testing
1. Preparation of 200× Compound Plate
1.1 The test compound was formulated into a 10 mM working solution in DMSO.
1.2 45 μL of 10 mM test compound was added to the 2nd column of rows A to P in the Echo-384 well plate. The compound was subjected to a 3-fold dilution with Precision (30 μL of DMSO was added to the 3rd to 11th columns; 15 μL of the drug solution was pipetted from the 2nd column to the 3rd column, blown and evenly mixed; then 15 μL of the drug solution was pipetted from the 3rd column to the 4th column, blown and evenly mixed; the drugs was subjected to a 3-fold dilution to obtain 10 concentrations in total). The 1st and 12th columns of the Echo-384 well plate were supplemented with 30 μL of DMSO.
2. Preparation of Intermediate Plate
500 nL, i.e., 0.5 μL of the diluted compound (or DMSO) in the 200× compound plate was transferred into the corresponding position of V-bottom 384-well plate with Echo. 20 μL of medium was added to each well, centrifuged, shaken and evenly mixed. The concentration of the drugs in each well of the 2nd to 11th column of intermediate plate (i.e., 5× compound plate) were shown in following Table 4.
3.1 The cell plate was taken out from the incubator and observed under a microscope. The diluted compound or DMSO in the intermediate plate was added to the cell plate in 10 μL/well in the corresponding cell plate, and 40 μL of medium was pre-filled in each well.
3.2 The cells were incubated at 37° C. under 5% CO2 for 4 hours.
4.1 1 mM CCF4-AM, solution B, Solution C, and Solution D were used to prepare an appropriate amount of 6× detection solution. The LiveBLAzer™-FRET B/G Loading kit (K1095, Thermo Fisher, Waltham, Massachusetts, USA) kit containing CCF-4AM and solutionB, solutionC, and solutionD was also purchased from invitrogen (K1157, Thermo Fisher, Waltham, Massachusetts, USA).
4.2 The cells were observed under a microscope and the cell plate was equilibrated to room temperature.
4.3 6 μL of CCF-4AM dissolved solution A, 60 μL of solution B, 904 μL of solution C and 30 μL of solution D were pipetted in an EP tube, blown, and evenly mixed to obtain a 6× detection solution. The prepared 6× detection solution was pipetted to a 384-well plate in 10 μL/well.

[1] = determination by the method of Effect Embodiment 1, read-out: EC50

## CC(C)C[C@@H](C(=O)N1CCC[C@H]1C(=O)N[C@H](CO)C(=O)N[C@@H](CCC(N)=O)C(=O)N[C@@H](Cc1ccccc1)C(=O)N[C@H](C)C(=O)N1Cc2ccccc2C[C@H]1C(=O)N(C)[C@@H](CCO)C(=O)O)N(C)C(=O)[C@H](Cc1ccccc1)NC(=O)[C@H](N)Cc1ccc(O)cc1 [YW-177, (D-Tyr)-Phe-(NMe-Leu)-Pro-(D-Ser)-Gln-Phe-(D-Ala)-Tic-(NMe-HoSer)-OH] (H-[dY]F[NMeL]P[dS]QF[dA][Tic][NMehSer]-OH)
[1]
  pEC50: 7.60

## CC(C)C[C@@H](C(=O)N1CCC[C@H]1C(=O)N[C@H](CO)C(=O)N[C@@H](CCC(N)=O)C(=O)N[C@@H](Cc1ccccc1)C(=O)N[C@H](C)C(=O)N1Cc2ccccc2C[C@H]1C(=O)N[C@@H](CO)C(N)=O)N(C)C(=O)[C@H](Cc1ccccc1)NC(=O)[C@H](N)Cc1ccc(O)cc1 [YW-190, (D-Tyr)-Phe-(NMe-Leu)-Pro-(D-Ser)-Gln-Phe-(D-Ala)-Tic-Ser-NH2] (H-[dY]F[NMeL]P[dS]QF[dA][Tic]S-NH2; N-terminus assumed)
[1]
  pEC50: 8.57

## CCC[C@H](NC(=O)[C@H](Cc1ccccc1)NC(=O)[C@H](N)Cc1ccc(O)cc1)C(=O)N1CCC[C@H]1C(=O)N[C@H](CO)C(=O)N[C@@H](CCC(N)=O)C(=O)N[C@@H](Cc1ccccc1)C(=O)N[C@H](C)C(=O)N1Cc2ccccc2C[C@H]1C(=O)N[C@@H](CO)C(=O)O [YW-196, (D-Tyr)-Phe-Nva-Pro-(D-Ser)-Gln-Phe-(D-Ala)-Tic-Ser] (H-[dY]F[Nva]P[dS]QF[dA][Tic]S-OH)
  pEC50: 7.41

## CCCCCCCCCCCCCCCC(=O)NCCOCCOCCOCCOCCOCCOCCOCCOCCC(=O)NCCC(=O)NCCC(=O)N(C)[C@H](Cc1ccc(O)cc1)C(=O)N[C@@H](Cc1ccccc1)C(=O)N(C)[C@@H](CC(C)C)C(=O)N1CCC[C@H]1C(=O)N[C@H](CO)C(=O)N[C@@H](CCC(N)=O)C(=O)N[C@@H](Cc1ccc2ccccc2c1)C(=O)N[C@H](C)C(=O)N1Cc2ccccc2C[C@H]1C(=O)N(C)[C@@H](CO)C(=O)O [YW-179, Palm-PEG8-(beta-Ala)-(beta-Ala)-(D-NMeTyr)-Phe-(NMe-Leu)-Pro-(D-Ser)-Gln-2Nal-(D-Ala)-Tic-(NMe-Ser)] ({Palmitoyl-PEG8-βAla-βAla}-[dNMeY]F[NMeL]P[dS]Q[2Nal][dA][Tic][NMeS]-OH)
[1]
  pEC50: 8.68

## CCCCCCCCCCCCCCCC(=O)NCCOCCOCCOCCOCCOCCOCCOCCOCCC(=O)NCC(=O)NCC(=O)N(C)[C@H](Cc1ccc(O)cc1)C(=O)N[C@@H](Cc1ccccc1)C(=O)N(C)[C@@H](CC(C)C)C(=O)N1CCC[C@H]1C(=O)N[C@H](CO)C(=O)N[C@@H](CCC(N)=O)C(=O)N[C@@H](Cc1ccc2ccccc2c1)C(=O)N[C@H](C)C(=O)N1Cc2ccccc2C[C@H]1C(=O)N(C)[C@@H](CO)C(=O)O [YW-178, Palm-PEG8-Gly-Gly-(D-NMe-Tyr)-Phe-(NMe-Leu)-Pro-(D-Ser)-Gln-2Nal-(D-Ala)-Tic-(NMe-Ser)] ({Palmitoyl-PEG8}-GG[dNMeY]F[NMeL]P[dS]Q[2Nal][dA][Tic][NMeS]-OH)
[1]
  pEC50: 8.68

## CC(C)C[C@H](NC(=O)[C@H](Cc1ccccc1)NC(=O)[C@@H](Cc1ccc(O)cc1)NC(=O)CCc1ccccc1)C(=O)N1CCC[C@H]1C(=O)N[C@H](CO)C(=O)N[C@@H](CCC(N)=O)C(=O)N[C@@H](Cc1ccccc1)C(=O)N[C@H](C)C(=O)N1Cc2ccccc2C[C@H]1C(=O)N[C@@H](CO)C(=O)O [YW-71, 3-phenylpropanoyl-(D-Tyr)-Phe-Leu-Pro-(D-Ser)-Gln-Phe-(D-Ala)-Tic-Ser-OH] (Hydrocinnamoyl-[dY]FLP[dS]QF[dA][Tic]S-OH)
[1]
  pEC50: 7.51

## CN[C@H](Cc1ccc(O)cc1)C(=O)N[C@@H](Cc1ccccc1)C(=O)N(C)[C@@H](CC(C)C)C(=O)N1CSC[C@H]1C(=O)N[C@H](CO)C(=O)N[C@@H](CCC(N)=O)C(=O)N[C@@H](Cc1ccccc1)C(=O)N[C@H](C)C(=O)N1Cc2ccccc2C[C@H]1C(=O)N(C)[C@@H](CO)C(=O)O [YW-124, (NMe-D-Tyr)-Phe-(NMe-Leu)-Thz-(D-Ser)-Gln-Phe-(D-Ala)-Tic-(NMe-Ser)-OH] (H-[dNMeY]F[NMeL][Thz][dS]QF[dA][Tic][NMeS]-OH)
[1]
  pEC50: 8.89

## CC(C)C[C@H](NC(=O)[C@H](Cc1ccccc1)NC(=O)[C@H](N)Cc1ccc(O)cc1)C(=O)N1CCC[C@H]1C(=O)N[C@H](CO)C(=O)N[C@@H](CCC(N)=O)C(=O)N[C@@H](Cc1ccccc1)C(=O)N[C@H](C)C(=O)N1CCc2ccccc2[C@H]1C(=O)N[C@@H](CO)C(=O)O [YW-150, (D-Tyr)-Phe-Leu-Pro-(D-Ser)-Gln-Phe-(D-Ala)-Ti1c-Ser-OH] (H-[dY]FLP[dS]QF[dA][Tiq1c(1S)]S-OH)
[1]
  pEC50: 7.21

## CCCCCCCCCCCCCC(=O)NCCOCCOCCOCCOCCOCCOCCOCCOCCC(=O)NCCC(=O)NCCC(=O)N(C)[C@H](Cc1ccc(O)cc1)C(=O)N[C@@H](Cc1ccccc1)C(=O)N(C)[C@@H](CC(C)C)C(=O)N1CCC[C@H]1C(=O)N[C@H](CO)C(=O)N[C@@H](CCC(N)=O)C(=O)N[C@@H](Cc1ccc2ccccc2c1)C(=O)N[C@H](C)C(=O)N1Cc2ccccc2C[C@H]1C(=O)N(C)[C@@H](CO)C(=O)O [YW-180, Tetradecanoyl-PEG8-βAla-βAla-(D-NMe-Tyr)-Phe-(NMe-Leu)-Pro-(D-Ser)-Gln-2Nal-(D-Ala)-Tic-(NMe-Ser)] ({Myristoyl-PEG8-βAla-βAla}-[dNMeY]F[NMeL]P[dS]Q[2Nal][dA][Tic][NMeS]-OH)
[1]
  pEC50: 8.85

## CC(C)C[C@H](NC(=O)[C@H](Cc1ccccc1)NC(=O)[C@@H](Cc1ccc(O)cc1)NC(=O)Cc1cc(O)cc(O)c1)C(=O)N1CCC[C@H]1C(=O)N[C@H](CO)C(=O)N[C@@H](CCC(N)=O)C(=O)N[C@@H](Cc1ccccc1)C(=O)N[C@H](C)C(=O)N1Cc2ccccc2C[C@H]1C(=O)N[C@@H](CO)C(=O)O [YW-131, 3,5-Dihydroxyphenylacetyl-(D-Tyr)-Phe-Leu-Pro-(D-Ser)-Gln-Phe-(D-Ala)-Tic-Ser] (X12-[dY]FLP[dS]QF[dA][Tic]S-OH)
[1]
  pEC50: 8.54

## CC(C)C[C@H](NC(=O)[C@H](Cc1ccccc1)NC(=O)[C@@H](Cc1ccc(O)cc1)NC(=O)CCCc1ccccc1)C(=O)N1CCC[C@H]1C(=O)N[C@H](CO)C(=O)N[C@@H](CCC(N)=O)C(=O)N[C@@H](Cc1ccccc1)C(=O)N[C@H](C)C(=O)N1Cc2ccccc2C[C@H]1C(=O)N[C@@H](CO)C(=O)O [YW-75, 4-Phenylbutanoyl-(D-Tyr)-Phe-Leu-Pro-(D-Ser)-Gln-Phe-(D-Ala)-Tic-Ser-OH] ({Butanoyl(4-Ph)}-[dY]FLP[dS]QF[dA][Tic]S-OH)
[1]
  pEC50: 7.30

## CC(C)C[C@H](NC(=O)[C@H](Cc1ccccc1)NC(=O)[C@H](N)Cc1ccc(O)cc1)C(=O)N1CCC[C@H]1C(=O)N[C@H](CO)C(=O)N[C@@H](CCC(N)=O)C(=O)N[C@@H](Cc1ccccc1)C(=O)N[C@H](C)C(=O)N1Cc2ccccc2C[C@@H]1C(=O)N[C@@H](CO)C(=O)O [YW-149, (D-Tyr)-Phe-Leu-Pro-(D-Ser)-Gln-Phe-(D-Ala)-D-Tic-Ser-OH] (H-[dY]FLP[dS]QF[dA][dTic]S-OH)
[1]
  pEC50: 7.68
